Data reported in patent publication US20230416248A1, “COMPOUNDS AND USES THEREOF” (Foghorn Therapeutics Inc., priority 2020, published 2023).
Where two headings read alike, the source gives them in different places.

Tests used:
[1] = molecular target: T1, BRM (Homo sapiens, UniProt P51531); assay: ATPase catalytic activity of BRM, ADP-Glo in vitro biochemical assay; settings: for IC50: 30 nM BRM, 400 μM ATP; for Ratio* (BRG1 IC50 (μM) divided by BRM IC50 (μM)): selectivity ratio BRG1 IC50 / BRM IC50
T1 construct: made in house; host or cells: High Five insect cells
How it was run: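 Recombinant BRM (30 nM) hydrolysed 400 μM ATP with 20 nM salmon sperm DNA in pH 8 Tris buffer containing 20 mM MgCl2, 50 mM NaCl, 0.1% Tween-20 and 1 mM DTT, 1 h at room temperature. ADP formed was quantified by ADP-Glo luminescence.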

[2] = molecular target: T2, BRG-1 (Homo sapiens, UniProt P51532); assay: ATPase catalytic activity of BRG-1, ADP-Glo in vitro biochemical assay; settings: 30 nM BRG-1, 400 μM ATP, read-out: BRG1 IC50
T2 construct: made in house; host or cells: High Five insect cells
How it was run: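 Signal reflects ADP produced by the enzyme, quantified as luminescence after unused ATP is cleared and ADP is reconverted to ATP for the luciferase reaction; both steps run at room temperature, 40 and 60 min respectively.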

[3] = ATPase catalytic activity, ADP-Glo

T1 sequence (P51531 whole entry): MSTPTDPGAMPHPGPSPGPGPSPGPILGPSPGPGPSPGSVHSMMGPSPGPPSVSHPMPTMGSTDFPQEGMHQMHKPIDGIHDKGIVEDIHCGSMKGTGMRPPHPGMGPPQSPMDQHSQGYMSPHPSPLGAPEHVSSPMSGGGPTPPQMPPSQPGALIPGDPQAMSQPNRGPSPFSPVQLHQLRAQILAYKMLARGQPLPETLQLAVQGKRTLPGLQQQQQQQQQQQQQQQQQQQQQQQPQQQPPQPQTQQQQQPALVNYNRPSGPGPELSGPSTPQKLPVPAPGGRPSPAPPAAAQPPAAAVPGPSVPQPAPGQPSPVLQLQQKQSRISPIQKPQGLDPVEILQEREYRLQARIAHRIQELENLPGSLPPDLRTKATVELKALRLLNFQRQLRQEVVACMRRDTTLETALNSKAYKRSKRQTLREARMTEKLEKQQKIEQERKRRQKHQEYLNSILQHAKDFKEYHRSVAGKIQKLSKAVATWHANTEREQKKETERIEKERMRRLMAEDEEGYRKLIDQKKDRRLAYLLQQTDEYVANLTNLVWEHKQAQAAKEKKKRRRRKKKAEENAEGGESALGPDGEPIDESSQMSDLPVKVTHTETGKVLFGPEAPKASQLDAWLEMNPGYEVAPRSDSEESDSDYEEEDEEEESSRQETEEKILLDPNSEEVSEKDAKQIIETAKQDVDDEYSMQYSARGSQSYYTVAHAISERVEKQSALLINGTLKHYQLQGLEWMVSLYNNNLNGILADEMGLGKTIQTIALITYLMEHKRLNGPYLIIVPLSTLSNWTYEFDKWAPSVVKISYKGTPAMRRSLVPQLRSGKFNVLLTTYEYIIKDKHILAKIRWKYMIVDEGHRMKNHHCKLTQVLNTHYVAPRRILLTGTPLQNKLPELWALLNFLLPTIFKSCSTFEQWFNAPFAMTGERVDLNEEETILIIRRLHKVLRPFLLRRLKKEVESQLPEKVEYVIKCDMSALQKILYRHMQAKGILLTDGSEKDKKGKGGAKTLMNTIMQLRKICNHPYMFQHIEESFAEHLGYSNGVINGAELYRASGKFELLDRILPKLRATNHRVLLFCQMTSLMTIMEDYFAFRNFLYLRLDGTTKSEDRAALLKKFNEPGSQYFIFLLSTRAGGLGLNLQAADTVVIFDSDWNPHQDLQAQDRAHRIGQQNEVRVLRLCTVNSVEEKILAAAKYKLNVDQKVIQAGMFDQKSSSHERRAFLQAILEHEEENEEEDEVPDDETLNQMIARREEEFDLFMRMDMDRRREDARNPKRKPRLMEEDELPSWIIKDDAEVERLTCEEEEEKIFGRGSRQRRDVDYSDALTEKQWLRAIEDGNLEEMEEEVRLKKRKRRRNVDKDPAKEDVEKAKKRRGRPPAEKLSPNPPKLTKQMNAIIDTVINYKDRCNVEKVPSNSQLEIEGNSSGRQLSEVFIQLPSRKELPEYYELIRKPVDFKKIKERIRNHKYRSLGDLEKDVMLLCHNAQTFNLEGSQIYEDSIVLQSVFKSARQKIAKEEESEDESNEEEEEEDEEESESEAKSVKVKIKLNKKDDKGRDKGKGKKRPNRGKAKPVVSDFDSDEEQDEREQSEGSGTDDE
T2 sequence (P51532 whole entry): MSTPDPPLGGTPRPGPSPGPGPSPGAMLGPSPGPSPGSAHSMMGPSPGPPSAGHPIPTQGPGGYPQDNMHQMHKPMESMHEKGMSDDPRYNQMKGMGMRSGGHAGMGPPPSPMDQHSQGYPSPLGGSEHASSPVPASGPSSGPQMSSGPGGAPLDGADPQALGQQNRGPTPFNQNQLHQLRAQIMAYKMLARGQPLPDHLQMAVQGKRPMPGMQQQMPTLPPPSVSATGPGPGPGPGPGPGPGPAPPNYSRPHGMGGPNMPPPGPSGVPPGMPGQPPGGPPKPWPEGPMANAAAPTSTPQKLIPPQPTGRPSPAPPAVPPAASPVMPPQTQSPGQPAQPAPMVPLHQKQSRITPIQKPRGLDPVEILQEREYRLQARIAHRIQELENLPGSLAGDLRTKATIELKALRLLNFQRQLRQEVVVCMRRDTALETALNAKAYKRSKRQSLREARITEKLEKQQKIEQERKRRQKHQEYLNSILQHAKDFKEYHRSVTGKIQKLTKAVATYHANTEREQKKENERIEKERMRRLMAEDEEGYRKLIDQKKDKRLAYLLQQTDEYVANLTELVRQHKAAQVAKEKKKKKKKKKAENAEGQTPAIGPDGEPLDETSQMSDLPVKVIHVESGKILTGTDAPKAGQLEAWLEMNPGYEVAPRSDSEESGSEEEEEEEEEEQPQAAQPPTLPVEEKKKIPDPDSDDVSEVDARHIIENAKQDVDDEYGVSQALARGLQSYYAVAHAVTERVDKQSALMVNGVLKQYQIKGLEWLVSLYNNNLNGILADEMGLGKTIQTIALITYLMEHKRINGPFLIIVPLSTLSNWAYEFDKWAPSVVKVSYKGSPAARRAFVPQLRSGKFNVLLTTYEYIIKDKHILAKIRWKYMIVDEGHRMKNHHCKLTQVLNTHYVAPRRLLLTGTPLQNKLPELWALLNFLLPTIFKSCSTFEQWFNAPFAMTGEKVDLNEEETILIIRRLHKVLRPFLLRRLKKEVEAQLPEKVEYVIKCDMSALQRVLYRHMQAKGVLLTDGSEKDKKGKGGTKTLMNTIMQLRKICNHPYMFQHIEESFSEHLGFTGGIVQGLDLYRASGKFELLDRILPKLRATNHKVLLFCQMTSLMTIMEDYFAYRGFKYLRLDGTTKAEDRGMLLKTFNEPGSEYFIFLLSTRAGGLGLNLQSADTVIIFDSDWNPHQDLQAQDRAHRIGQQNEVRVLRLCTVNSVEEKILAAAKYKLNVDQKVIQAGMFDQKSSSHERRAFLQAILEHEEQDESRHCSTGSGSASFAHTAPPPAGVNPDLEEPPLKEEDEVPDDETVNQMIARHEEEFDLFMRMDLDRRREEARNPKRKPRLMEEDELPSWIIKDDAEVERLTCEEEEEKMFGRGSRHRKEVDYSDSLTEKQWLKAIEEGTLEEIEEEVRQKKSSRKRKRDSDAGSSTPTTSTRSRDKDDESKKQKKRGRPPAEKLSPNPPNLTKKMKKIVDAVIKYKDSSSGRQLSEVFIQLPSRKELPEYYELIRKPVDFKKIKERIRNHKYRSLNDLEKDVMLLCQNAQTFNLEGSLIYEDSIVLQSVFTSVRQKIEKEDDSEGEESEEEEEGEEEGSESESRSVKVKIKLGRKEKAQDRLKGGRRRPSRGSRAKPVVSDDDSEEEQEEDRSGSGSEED

| SMILES | IC50 ([1]; ADP-Glo ATPase assay) [nM] | Ratio* (BRG1 IC50 (μM) divided by BRM IC50 (μM)) [1] | IC50 ([2]; ADP-Glo ATPase assay) [nM] | Ratio* ([1]; ratio BRG1 IC50 / BRM IC50) | IC50 [1, 3] [nM] | Ratio* ([1]; ratio of BRG1 IC50 to BRM IC50) | IC50 [2, 3] [nM] |
| --- | --- | --- | --- | --- | --- | --- | --- |
| Cn1ccc2ccc(-c3ccc4cnc(CNC(=O)c5ccc6c(c5)S(=O)(=O)CCOC6)cc4n3)nc21 [Compound 136] | 33.4 | 7.15 | 239 |  |  |  |  |
| CO[C@@H](C)Cn1ccc2c(-c3ccc4cnc(CNC(=O)c5ccc6c(c5)S(=O)(=O)CCOC6)cc4n3)ccnc21 [Compound 449] |  |  |  |  | 34.9 | 14.08 | 491 |
| O=C(NCc1cc2nc(-c3cccc(N4CCC(F)(F)C4)n3)ccc2cn1)c1ccc2c(c1)S(=O)(=O)CCOC2 [Compound 202] | 17.9 | 7.59 | 136 |  |  |  |  |
| CNc1cccc(-c2ccc3cnc(CNC(=O)c4ccc5c(c4)S(=O)(=O)CCOC5)cc3n2)n1 [Compound 274] | 69.6 | 8.46 | 589 |  |  |  |  |
| O=C(NCc1cc2nc(N3CCc4ccccc43)ccc2cn1)c1ccc2c(c1)S(=O)(=O)CCOC2 [Compound 50] | 147 |  | 1520 |  |  |  |  |
| C[C@@H]1CN(c2cccc(-c3ccc4cnc(CNC(=O)c5ccc6c(c5)S(=O)(=O)CC[C@H](C)O6)cc4n3)n2)C[C@H](C)O1 [Compound 418] |  |  |  |  | 13.6 | 14.19 | 193 |
| CO[C@H]1C[C@H](c2cccc(-c3ccc4cnc(CNC(=O)c5ccc6c(c5)S(=O)(=O)CCOC6)cc4n3)n2)C1 [Compound 106] | 76.1 | 8.76 | 667 |  |  |  |  |
| CO[C@H]1CCS(=O)(=O)c2cc(C(=O)NCc3cc4nc(-c5cccc(N6C[C@@H](C)O[C@@H](C)C6)n5)ccc4cn3)ccc2C1 [Compound 444] |  |  |  |  | 13 | 2.12 | 27.5 |
| C[C@@H]1CN(c2cccc(-c3ccc4cnc(CNC(=O)c5ccc6c(c5)S(=O)(=O)CCOC6)cc4n3)c2)C[C@H](C)O1 [Compound 112] | 12.9 | 13.71 | 176 |  |  |  |  |
| O=C(NCc1cc2nc(-c3cncc(C4CC4)n3)ccc2cn1)c1cnc2c(c1)S(=O)(=O)CCCC2 [Compound 230] | 41.6 | 9.60 | 399 |  |  |  |  |

Next, values leading:

| IC50 ([1]; ADP-Glo ATPase assay) [nM] | Ratio* (BRG1 IC50 (μM) divided by BRM IC50 (μM)) [1] | IC50 ([2]; ADP-Glo ATPase assay) [nM] | Ratio* ([1]; ratio BRG1 IC50 / BRM IC50) | IC50 [1, 3] [nM] | Ratio* ([1]; ratio of BRG1 IC50 to BRM IC50) | IC50 [2, 3] [nM] | SMILES |
| --- | --- | --- | --- | --- | --- | --- | --- |
| 6.3 |  | 86.2 | 13.67 |  |  |  | Cc1cnc2c(c1)C1(CCN2c2ccc3cnc(CNC(=O)c4ccc5c(c4)S(=O)(=O)CCOC5)cc3n2)CC1 [Compound 734] |
|  |  |  |  | 249 | 15.80 | 3930 | C[C@@H]1CN(c2cccc(-c3ccc4cnc(CNC(=O)c5ccc6c(c5)S(=O)(=O)CCOC6(C)C)cc4n3)n2)C[C@H](C)O1 [Compound 655] |
|  |  |  |  | 12.7 | 7.17 | 90.8 | CN1CCCc2ccc(-c3ccc4cnc(CNC(=O)c5ccc6c(c5)S(=O)(=O)CCOC6)cc4n3)nc21 [Compound 488] |
| 6.3 |  | 100 | 15.77 |  |  |  | COc1ccc2c(c1)N(c1ccc3cnc(CNC(=O)c4ccc5c(c4)S(=O)(=O)CCOC5)cc3n1)CCO2 [Compound 776] |
| 52.9 |  | 907 | 17.15 |  |  |  | C[C@@H]1CN(c2ccnc(-c3ccc4cnc(CNC(=O)c5ccc6c(c5)S(=O)(=O)[C@@H](C)COC6)cc4c3)n2)C[C@H](C)O1 [Compound 708] |
| 103 |  | 1220 | 11.84 |  |  |  | O=C(NCc1cc2nc(N3CCc4cc(F)cnc43)ccc2cn1)c1ccc2c(c1)S(=O)(=O)CCOC2 [Compound 727] |
|  |  |  |  | 15.8 | 9.98 | 158 | COc1cc2c(nc1C)N(c1ccc3cnc(CNC(=O)c4ccc5c(c4)S(=O)(=O)CCOC5)cc3n1)CCC2 [Compound 602] |
|  |  |  |  | 230 | 20.44 | 4690 | C[C@@H]1CN(c2cccc(-c3ccc4cnc(CNC(=O)c5ccc(CC(C)(F)F)c(S(C)(=O)=O)c5)cc4n3)n2)C[C@H](C)O1 [Compound 474] |
|  |  |  |  | 36 | 27.40 | 986 | C[C@H]1COCc2ccc(C(=O)NCc3cc4nc(-c5ccnc([C@H]6CC6(F)F)n5)ccc4cn3)cc2S1(=O)=O [Compound 464] |
